Reference: BindingDB's records for doi:10.1074/jbc.M004512200 (Schering-Plough Research Institute, 2000)
“And” between values parts separate entries of the source, which are not always exact repeats. Equal entries are not always repeated.

What was measured:
[1] = biological target: T1, Leukotriene B4 receptor 2 (Homo sapiens, UniProt Q9NPC1)
T1 sequence (Q9NPC1 whole entry): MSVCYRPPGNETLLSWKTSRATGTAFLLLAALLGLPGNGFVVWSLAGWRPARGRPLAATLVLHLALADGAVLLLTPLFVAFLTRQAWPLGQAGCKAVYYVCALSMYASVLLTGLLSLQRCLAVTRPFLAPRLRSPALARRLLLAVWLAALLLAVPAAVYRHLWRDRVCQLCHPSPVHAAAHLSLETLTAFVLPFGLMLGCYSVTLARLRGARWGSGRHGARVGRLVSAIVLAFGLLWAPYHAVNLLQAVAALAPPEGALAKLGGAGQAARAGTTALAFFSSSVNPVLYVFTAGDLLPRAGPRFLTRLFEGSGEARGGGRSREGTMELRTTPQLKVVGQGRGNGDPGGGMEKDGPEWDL

[2] = biological target: Leukotriene B4 receptor 1 (Homo sapiens, UniProt Q15722)
Sequence of Leukotriene B4 receptor 1 (Q15722 whole entry): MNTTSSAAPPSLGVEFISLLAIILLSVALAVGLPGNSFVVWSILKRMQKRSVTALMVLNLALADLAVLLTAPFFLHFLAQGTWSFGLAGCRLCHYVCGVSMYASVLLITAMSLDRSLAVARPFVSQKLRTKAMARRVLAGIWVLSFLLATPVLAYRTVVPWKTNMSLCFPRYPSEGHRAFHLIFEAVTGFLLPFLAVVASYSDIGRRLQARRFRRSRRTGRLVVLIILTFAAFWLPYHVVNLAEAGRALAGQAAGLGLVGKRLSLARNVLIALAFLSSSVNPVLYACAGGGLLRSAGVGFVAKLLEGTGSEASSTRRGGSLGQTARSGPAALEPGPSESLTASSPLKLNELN

Row | Ki [1] | Ki [2] | SMILES
1 | 0.173 µM | > 18 µM | CCCCC[C@@H](O)/C=C/C=C\C/C=C\C/C=C\CCCC(=O)O
2 | > 10 µM | 4 µM | CCCCC/C=C\C\C=C/C=C/C=C/[C@@H](SC[C@H](N)C(=O)NCC(=O)O)[C@@H](O)CCCC(=O)O [5S-hydroxy-6R-(S-cysteinylglycinyl)-7E,9E,11E,14Z-eicosatetraenoic acid]
3 | 6 µM | 2.37 µM | CCCCC/C=C\C\C=C/C=C/C=C/[C@@H](SC[C@H](N)C(=O)O)[C@@H](O)CCCC(=O)O [(5S-(5R*,6S*(S*),7E,9E,11Z,14Z))-6-((2-Amino-2-carboxyethyl)thio)-5-hydroxy-7,9,11,14-eicosatetraenoic acid]
4 | > 1 µM | > 1 µM | CCCCC/C=C\C/C=C\CC=CC=CC(=O)CCCC(=O)O [ETE-5-Oxo]
5 | 1 µM and 3 µM | 1 µM and > 10 µM | CCCCC/C=C\C/C=C\C/C=C\C=C\C(O)CCCC(=O)O [HETE-5(S)]
6 |  | > 10 µM | CC/C=C/CC=CCC=CC=CC=CC1OC1CCCC(=O)OC (centres undefined) [LTA5-ME]
7 | 1.23 µM | 0.0051 µM | CCCCC/C=C\C[C@@H](O)/C=C/C=C/C=C\[C@@H](O)CCCC(=O)NCCCN [LTB4-3-aminopropylamide]
8 | 0.041 µM | 0.00054 µM | O=C(O)CCC[C@H](O)\C=C/C=C/C=C/[C@H](O)C/C=C\CCCCCO [LTB4-20-hydroxy]
9 |  | > 10 µM | CC/C=C/CC=CCC=CC=CC=CC(SCC(N)C(=O)NCC(=O)O)C(O)CCCC(=O)O (centres undefined) [LTD5]
10 | 1.4 µM | 1.44 µM | CCCCCC(O)C=CC=CC=CC=CC(O)C(O)CCCC(=O)O (centres undefined) [NSC_5280914]
11 | 6 µM | 5.7 µM | CCCCCC=CCC=CC=CC=CC(SCC(NC(=O)CCC(N)C(=O)O)C(=O)O)C(O)CCCC(=O)O (centres undefined) [NSC_5283124]
12 | 0.0094 µM | 0.0037 µM | CCC=CCC=CCC(O)C=CC=CC=CC(O)CCCC(=O)O (centres undefined) [NSC_5283125]
13 | 0.155 µM | > 1 µM | CCCCCCC=CC(=O)C=CC=CCC=CCCCC(=O)O [NSC_5283162]
14 | > 1 µM | > 30 µM | CCCCCC=CCC=CC=CC(O)CC=CCCCC(=O)O (centres undefined) [NSC_5283163]

The next lines start with the compound.

Row | SMILES | Ki [1] | Ki [2]
15 | CCCCC/C=C\C[C@H](O)/C=C/c1cccc(C[C@H](O)CCCCO)n1 [(5R)-6-[6-[(1E,3S,5Z)-3-hydroxyundeca-1,5-dienyl]pyridin-2-yl]hexane-1,5-diol] | 5.43 µM | 0.025 µM
16 | CCCCCC=CCC=CC=CC=CC(SCC(NC(=O)CCC(N)C(=O)O)C(=O)NCC(=O)O)C(O)CCCC(=O)O (centres undefined) [CAS_5283121] | > 9 µM | > 1.9 µM
17 | O=C(O)CCCC=CCC=CCC=CCC=CCCCCCO [CAS_5283157] | > 1 µM | > 10 µM
18 | CCCCCCCCC=CC=CC=CC1OC1CCCC(=O)OC (centres undefined) [LTA3-ME] | > 10 µM | 5 µM
19 | CCCCCCCCC=CC=CC=CC(SCC(NC(=O)CCC(N)C(=O)O)C(=O)NCC(=O)O)C(O)CCCC(=O)O (centres undefined) [LTC3] | > 4 µM | > 14 µM
20 | CC/C=C/C=C/CCC=CC=CC=CC(SCC(NC(=O)CCC(N)C(=O)O)C(=O)NCC(=O)O)C(O)CCCC(=O)O (centres undefined) [LTC5] | 3 µM | > 10 µM
21 | CCCCCCCCC=CC=CC=CC(SCC(N)C(=O)NCC(=O)O)C(O)CCCC(=O)O (centres undefined) [LTD3] | 1 µM | > 10 µM
22 | CCCCCCCCC=CC=CC=CC(SCC(N)C(=O)O)C(O)CCCC(=O)O (centres undefined) [LTE3] | 4 µM | > 10 µM
23 | CCCCCC=CCC=CCC=CCC#CCCCC(=O)O [NSC_1777] | 1 µM | 
24 | CCCCCC=CCC=CC=CC=CC1OC1CCCC(=O)OC (centres undefined) [NSC_126534] | > 10 µM | > 10 µM
25 | CC(C)(O)c1ccccc1CCC(S)c1cccc(C=Cc2ccc3ccc(Cl)cc3n2)c1 (centres undefined) [NSC_5311297] | > 10 µM | > 10 µM
26 | COc1cc(C(=O)NS(=O)(=O)c2ccccc2C)ccc1Cc1cn(C)c2ccc(NC(=O)OC3CCCC3)cc12 [cyclopentyl 3-(2-methoxy-4-((o-tolylsulfonyl)carbamoyl)benzyl)-1-methylindole-5-carbamate] | > 10 µM | 7.12 µM
